Values joined by “and” are separate entries in the source; they are usually repeats but may differ in a detail not shown here. Identical values can stand only once. Like-named read-outs stand apart in the source and are kept apart here.
Key:
[1] = tested on: histamine-induced bronchospasm; conditions: F. L. Rose et al, J. Chem. Soc.; cited from earlier work
[2] = tested on: 3',5'-Cyclic AMP Phosphodiesterase (PDE); experiment: Inhibition of 3',5'-cyclic AMP phosphodiesterase (PDE) isolated from rabbit kidney, low affinity (Fraction I, high Km); type: biochemical; conditions: for IC50: cAMP approx. 5 × 10^-4 M
[3] = Potentiation of the depressant effects of ethanol, loss of the righting reflex in the mouse; conditions: po
Description: For this test male Swiss-Webster mice weighing 18 to 20 grams were food deprived 18 hours prior to the experiment. […] Drugs were given orally in 20 ml/kg of 1% CMC. Ethanol (5 gm/kg p.o.) was given 30 minutes after drug injection. Immediately after treatment animals were placed in individual clear plastic containers.
The righting reflex was recorded as being present when the animal would voluntarily roll to its side when placed on its back. Animals were tested for righting reflex every 15 minutes.

male Swiss-Webster mice = experiment: Potentiation of the depressant effects of sodium barbital, loss of the righting reflex in the mouse; type: in vivo
Description: This dose of barbital sodium (100 mg/kg) was then injected i.p. in a group of ten mice. Fifteen min. later the mice were injected i.p. with the dose of compound to be tested. […] Mice were tested at 15 min. intervals for one hour after injection of test compound. Responses were recorded on an all-or-none basis; loss of righting reflex for 5 min. or longer was the effective criteria.

male Sprague-Dawley rats = experiment: Antianxiety activity: stimulation of drinking activity of the rat in a passive avoidance behavioral paradigm; type: in vivo; conditions: for minimal effective dose: read-out: Dose wherein the first statistically behavioral difference (p<0.05 or less) from the control group occurs; for ED50: read-out: ED50 (dose producing 50% of maximum effect)
Description: In Tables V and VI the antianxiety activity of the listed compounds is measured as a function of the compounds ability to stimulate drinking activity of the rat in a passive avoidance behavioral paradigm. For these tests male Sprague-Dawley rats weighing 175 to 200 grams were water deprived for 48 hr. and placed in environmental chambers in which water was available with a punishment contingency. Each accumulated 3 sec. of contact with the drinking tube caused a constant current source (1.2 mA DC) to be applied to the drinking tube for 2 sec. Test sessions were 5 min. in duration, commencing with delivery of the first shock. Twelve rats were treated orally 1 hr. or intraperitoneally 30 min. prior to testing. The tests are scored based on the number of shocks accepted by the treated animals at a specific dose and were compared to twelve saline control animals tested on the same day.
In Table V the activity is expressed as an ED50. The ED50 is the dose of the compound in mg/kg producing 50% of maximum effect and is shown for both oral (p.o.) and interperitoneal (i.p.) routes of administration.
In Table VI the activity is expressed as the dose (i.p.) wherein the first statistically behavioral difference (p<0.05 or less) from the control group occurs. Included for comparison are the commonly prescribed antianxiety drugs, chlordiazepoxide and diazepam.

[4] = tested on: 3',5'-Cyclic-AMP phosphodiesterase (PDE); experiment: Inhibition of PDE from rabbit lung, high affinity (Fraction II, low Km); type: biochemical; conditions: cAMP 1.6 × 10^-7 M, relative to theophylline
[5] = tested on: 3',5'-Cyclic AMP Phosphodiesterase (PDE); experiment: Inhibition of 3',5'-cyclic AMP phosphodiesterase (PDE) isolated from rabbit lung, low affinity (Fraction I, high Km); type: biochemical; conditions: for IC50: cAMP approx. 5 × 10^-4 M
[6] = tested on: 3',5'-Cyclic-AMP phosphodiesterase (PDE); experiment: Inhibition of PDE from beef heart, high affinity (Fraction II, low Km); type: biochemical; conditions: cAMP 1.6 × 10^-7 M, relative to theophylline
phosphodiesterase = conditions: cited from earlier work
central nevous system = conditions: in vivo; cited from earlier work
[7] = i.p., 15 min after sodium barbital 100 mg/kg i.p.
[8] = ip, 0.5 h, i.p., 30 min prior to testing

| Structure (SMILES) | α (relative inhibitory activity as compared with theophylline) [2] | IC50 ([2]; read-out: I50) [µM] | α Lung [4] | NOAEL ([3]; mouse) [mg/kg] | Dose of compound which produced loss of righting reflex in 50% of treated animals (male Swiss-Webster mice; mouse, in vivo, ip) [mg/kg] | α Heart [6] | ED50 (male Sprague-Dawley rats; [8]) [mg/kg] | minimal effective dose (male Sprague-Dawley rats; ip, 0.5 h, i.p.) [mg/kg] | ED50 (male Sprague-Dawley rats; po, 1 hr prior to testing) [mg/kg] | also measured |
| --- | --- | --- | --- | --- | --- | --- | --- | --- | --- | --- |
| CCCc1nc(C)cc2nc(N)nn12 [COMPOUND 1] | 0.14 | 1600 |  |  |  |  |  |  |  | Protection from histamine-induced bronchospasm [1]: capable of protecting animals from histamine-induced bronchospasm |
| CCOC(=O)c1cnn2c(C)cc(C)nc12 [COOC2 H5] | 0.22 | 1000 |  |  |  |  |  |  |  |  |
| CNC1=Nc2ccc(Cl)cc2C(c2ccccc2)=[N+]([O-])C1 [Chlordiazepoxide, chlordiazepoxide, reference compound] |  |  |  |  |  |  |  |  |  | NOAEL ([3]; in vivo): 4 mg/kg; Dose of compound which produced loss of righting reflex in 50% of treated animals (male Swiss-Webster mice; [7]): 6.4 ± 0.4 mg/kg; minimal effective dose (male Sprague-Dawley rats; ip, 0.5 h): 10 mg/kg |
| CN1C(=O)CN=C(c2ccccc2)c2cc(Cl)ccc21 [Diazepam, diazepam, reference compound] |  |  |  |  |  |  |  |  |  | Dose of compound which produced loss of righting reflex in 50% of treated animals (male Swiss-Webster mice; [7]): 0.5 ± 0.8 mg/kg; minimal effective dose (male Sprague-Dawley rats; ip, 0.5 h): 20 mg/kg |
| Cc1cc(C)n2ncc(Br)c2n1 [Example I, 3-Bromo-5,7-dimethyl pyrazolo[1,5-a]pyrimidine] | 2.20 | 100 | 0.7 | 400 | 61.9 ± 12.1 | 1.7 | 10.5 ± 0.8 | 10 | 9.5 ± 3.5 | α (relative inhibitory activity as compared with theophylline) [5]: 2.4; IC50 ([5]; read-out: I50): 270 µM |
| Cc1cc(C)n2nccc2n1 [H, 5,7-dimethyl pyrazolo[1,5-a]pyrimidine, reference compound] | 0.20 | 800 |  | 300 | 118.8 ± 15.7 |  | 20.9 ± 4.6 | 40 | 43.6 ± 6.1 | α (relative inhibitory activity as compared with theophylline) [5]: 0.32; IC50 ([5]; read-out: I50): 2000 µM |
| Cc1cc(C)n2ncc(Cl)c2n1 [II, 3-Chloro-5,7-dimethyl pyrazolo[1,5-a]pyrimidine] | 1.33 | 240 | 2.2 | 200 | 60.9 ± 20.8 | 1.7 | 2.4 ± 4.3 | 10 | 7.8 ± 4.5 | α (relative inhibitory activity as compared with theophylline) [5]: 3.1; IC50 ([5]; read-out: I50): 210 µM |
| Cc1cc(C)n2ncc(I)c2n1 [III, 5,7-Dimethyl 3-iodo pyrazolo[1,5-a]pyrimidine] | 1.23 | 130 | 3.5 | 200 | 142.8 ± 10.1 | 1.5 | 10.1 ± 6.8 | 20 | 95.9 ± 11.7 | α (relative inhibitory activity as compared with theophylline) [5]: 3.5; IC50 ([5]; read-out: I50): 210 µM |
| Cc1cc(C)n2ncc(F)c2n1 [IV, 5,7-Dimethyl 3-fluoro pyrazolo[1,5-a]pyrimidine] |  |  |  | 100 | 148.5 ± 4.5 |  | 40.7 ± 11.9 | 40 | 76.2 ± 10.8 |  |
| CCc1cc(C)nc2c(Br)cnn12 [XIV, 3-Bromo-7-ethyl-5-methylpyrazolo[1,5-a]pyrimidine] |  |  | 7.5 |  |  | 4.0 |  |  |  |  |
| CCCc1cc(C)nc2c(Br)cnn12 [XV, 3-Bromo-5-methyl-7-n-propylpyrazolo[1,5-a]pyrimidine] |  |  | 7.5 |  |  | 6.5 |  |  |  |  |
| CCc1cc(CC)n2ncc(Br)c2n1 [XVI, 3-Bromo-5,7-diethylpyrazolo[1,5-a]pyrimidine] |  |  | 7.4 |  |  | 6.0 |  |  |  |  |
| CCCc1cc(CCC)n2ncc(Br)c2n1 [XVII, 3-Bromo-5,7-di-n-propylpyrazolo[1,5-a]pyrimidine] |  |  | 5.5 |  |  | 3.0 |  |  |  |  |
| CCCc1nc(C)cn2c(N)nnc12 [compound 2] |  |  |  |  |  |  |  |  |  | Protection from histamine-induced bronchospasm [1]: capable of protecting animals from histamine-induced bronchospasm |
| Cn1c(=O)c2[nH]cnc2n(C)c1=O [theophylline] |  |  |  |  |  |  |  |  |  | IC50 ([5]; theophylline reference run of each compound line, read-out: I50 (Theophylline)): 640 µM and 740 µM; Selectivity of phosphodiesterase inhibition (phosphodiesterase): does not selectively inhibit phosphodiesterase; IC50 ([2]; theophylline reference run of each compound line, read-out: I50 (theophylline)): 160 µM and 220 µM and 320 µM; Cardiovascular effects (central nevous system): rapid beating; Central nervous system effect (central nevous system): gives general stimulation to the central nevous system |
